From patent publication US20260001875A1, “AMINOPYRIMIDINYL DERIVATIVES FOR THE TREATMENT OF PARKINSON'S DISEASE” (UNIVERSITY OF DUNDEE, priority 2022, published 2026)
Where two headings read alike, the source gives them in different places.

Tests used:
LRRK2 pSer935 = experiment: LRRK2 Ser935 dephosphorylation (immunoblot) in WT MEFs; assay type: cell-based, mouse; conditions: for EC50: Mus musculus, dose response, read-out: WT MEFs pSer935 LRRK2-dephosphrylation EC50; for T1/2 WT-pSer935-LRRK2: WT MEFs
Method: Western blot degradation assays for the LRRK2 protacs were performed with WT and PD-associated LRRK2 [G2019S] mouse embryonic fibroblasts (MEFs). The second-generation PROTACs were tested in parallel with the first generation PROTACs SD75, SD82, and SD100. The compounds were tested at 33 nM or […] concentrations for 4 hours or 24 hours, running two biological replicates per condition and achieving quantifications representative of both replicates. Analysis by quantitative immunoblotting was performed with readouts of the total LRRK2 (antibody recognizes epitope in C-terminus of protein), Rab10 pThr73 (physiological substrate) and LRRK2 pSer935 (biomarker phosphorylation site).
Primary MEFs were generated as described in a previous study (Wiggin et al., Mol. Cell Biol. 2002 April; 22(8):2871-81.). Briefly, the uterine horn was collected from adult female mice at day E12.5 and transferred to a 10 cm tissue culture dish containing cold PBS. Two forceps were used to tear the yolk sacs to isolate each embryo. Forceps were cleaned thoroughly with 70% ethanol between each embryo isolation. The embryos were culled, and a tissue piece was collected in a PCR tube for genotyping. The red tissue of the embryo, which grows to become the heart and liver, was removed. The remainder of the embryo was minced with a scalpel blade and incubated with 7.5 ml trypsin-EDTA solution for 10 minutes in a 37° C. tissue culture CO2 incubator. The dish was removed from the incubator and checked under a light microscope for single cells. 7.5 ml complete media was added to the trypsinised cells, and the cell suspension was transferred to a 15 ml Falcon tube, centrifuged at 1200 rpm for 5 minutes at room temperature. The trypsin was aspirated, the cell pellet was resuspended in 5 ml fresh complete media, and the cell suspension was plated in a 60 mm tissue culture dish and incubated in a 37° C., 5% CO2 tissue culture incubator. The MEFs at this stage were considered as passage 0 and were passaged and expanded for experimental use once the genotype was confirmed by allelic sequencing and immunoblotting. MEFs were cultured in Dulbecco's modified Eagle medium (DMEM) containing 10% (v/v) fetal bovine serum (FBS), 2 mM L-glutamine, 100 U/ml penicillin, and 100 μg/ml streptomycin supplemented with 1× non-essential amino acids and 1 mM sodium pyruvate.
Culturing and passaging of adherent cell lines were carried out using aseptic technique in CL1 or CL2 (for PBMC isolation) biological safety cabinets. All cells were incubated in a 37° C. incubator with 5% CO2. Cell lines were regularly tested for mycoplasma contamination. For western blot assay, the cells were seeded in 6-well plates. After treating with testing compounds at indicated concentrations and time period, the media was removed and the cells were washed with PBS and lysed in 100 μl ice-cold complete lysis buffer containing 50 mM Tris-HCl pH 7.4, 1 mM EGTA, 10 mM 2-glycerophosphate, 50 mM sodium fluoride, 5 mM sodium pyrophosphate, 270 mM sucrose, supplemented with 1 μg/ml microcystin-LR, 1 mM sodium orthovanadate, complete EDTA-free protease inhibitor cocktail (Roche) and 1% (v/v) Triton X-100. The cells were immediately placed on ice and were scraped and collected into 1.5 ml Eppendorf tubes. Cell lysates were incubated on ice for 10 minutes prior to centrifugation at 15,000 g at 4° C. for 15 minutes. The cell pellet was discarded, and supernatant was collected for analysis by quantitative immunoblotting. For long term storage, the supernatant was flash frozen and stored at −80° C. Protein concentrations of cell lysates were determined using the Bradford assay.
Cell lysates containing a quarter of a volume of 4× NuPAGE LDS sample buffer (NP0007) supplemented with 5% β-mercaptoethanol, were heated at 95° C. for 5 minutes. […]

LRRK2 = LRRK2 (Homo sapiens, UniProt Q5S007); experiment: NanoBRET LRRK2 target engagement in HEK293 cells; assay type: binding; set-up: host or cells: HEK293; conditions: for IC50: read-out: IC50 LRRK2 tracer displacement
Chain of LRRK2 (Q5S007 whole entry, the tested form may be a part): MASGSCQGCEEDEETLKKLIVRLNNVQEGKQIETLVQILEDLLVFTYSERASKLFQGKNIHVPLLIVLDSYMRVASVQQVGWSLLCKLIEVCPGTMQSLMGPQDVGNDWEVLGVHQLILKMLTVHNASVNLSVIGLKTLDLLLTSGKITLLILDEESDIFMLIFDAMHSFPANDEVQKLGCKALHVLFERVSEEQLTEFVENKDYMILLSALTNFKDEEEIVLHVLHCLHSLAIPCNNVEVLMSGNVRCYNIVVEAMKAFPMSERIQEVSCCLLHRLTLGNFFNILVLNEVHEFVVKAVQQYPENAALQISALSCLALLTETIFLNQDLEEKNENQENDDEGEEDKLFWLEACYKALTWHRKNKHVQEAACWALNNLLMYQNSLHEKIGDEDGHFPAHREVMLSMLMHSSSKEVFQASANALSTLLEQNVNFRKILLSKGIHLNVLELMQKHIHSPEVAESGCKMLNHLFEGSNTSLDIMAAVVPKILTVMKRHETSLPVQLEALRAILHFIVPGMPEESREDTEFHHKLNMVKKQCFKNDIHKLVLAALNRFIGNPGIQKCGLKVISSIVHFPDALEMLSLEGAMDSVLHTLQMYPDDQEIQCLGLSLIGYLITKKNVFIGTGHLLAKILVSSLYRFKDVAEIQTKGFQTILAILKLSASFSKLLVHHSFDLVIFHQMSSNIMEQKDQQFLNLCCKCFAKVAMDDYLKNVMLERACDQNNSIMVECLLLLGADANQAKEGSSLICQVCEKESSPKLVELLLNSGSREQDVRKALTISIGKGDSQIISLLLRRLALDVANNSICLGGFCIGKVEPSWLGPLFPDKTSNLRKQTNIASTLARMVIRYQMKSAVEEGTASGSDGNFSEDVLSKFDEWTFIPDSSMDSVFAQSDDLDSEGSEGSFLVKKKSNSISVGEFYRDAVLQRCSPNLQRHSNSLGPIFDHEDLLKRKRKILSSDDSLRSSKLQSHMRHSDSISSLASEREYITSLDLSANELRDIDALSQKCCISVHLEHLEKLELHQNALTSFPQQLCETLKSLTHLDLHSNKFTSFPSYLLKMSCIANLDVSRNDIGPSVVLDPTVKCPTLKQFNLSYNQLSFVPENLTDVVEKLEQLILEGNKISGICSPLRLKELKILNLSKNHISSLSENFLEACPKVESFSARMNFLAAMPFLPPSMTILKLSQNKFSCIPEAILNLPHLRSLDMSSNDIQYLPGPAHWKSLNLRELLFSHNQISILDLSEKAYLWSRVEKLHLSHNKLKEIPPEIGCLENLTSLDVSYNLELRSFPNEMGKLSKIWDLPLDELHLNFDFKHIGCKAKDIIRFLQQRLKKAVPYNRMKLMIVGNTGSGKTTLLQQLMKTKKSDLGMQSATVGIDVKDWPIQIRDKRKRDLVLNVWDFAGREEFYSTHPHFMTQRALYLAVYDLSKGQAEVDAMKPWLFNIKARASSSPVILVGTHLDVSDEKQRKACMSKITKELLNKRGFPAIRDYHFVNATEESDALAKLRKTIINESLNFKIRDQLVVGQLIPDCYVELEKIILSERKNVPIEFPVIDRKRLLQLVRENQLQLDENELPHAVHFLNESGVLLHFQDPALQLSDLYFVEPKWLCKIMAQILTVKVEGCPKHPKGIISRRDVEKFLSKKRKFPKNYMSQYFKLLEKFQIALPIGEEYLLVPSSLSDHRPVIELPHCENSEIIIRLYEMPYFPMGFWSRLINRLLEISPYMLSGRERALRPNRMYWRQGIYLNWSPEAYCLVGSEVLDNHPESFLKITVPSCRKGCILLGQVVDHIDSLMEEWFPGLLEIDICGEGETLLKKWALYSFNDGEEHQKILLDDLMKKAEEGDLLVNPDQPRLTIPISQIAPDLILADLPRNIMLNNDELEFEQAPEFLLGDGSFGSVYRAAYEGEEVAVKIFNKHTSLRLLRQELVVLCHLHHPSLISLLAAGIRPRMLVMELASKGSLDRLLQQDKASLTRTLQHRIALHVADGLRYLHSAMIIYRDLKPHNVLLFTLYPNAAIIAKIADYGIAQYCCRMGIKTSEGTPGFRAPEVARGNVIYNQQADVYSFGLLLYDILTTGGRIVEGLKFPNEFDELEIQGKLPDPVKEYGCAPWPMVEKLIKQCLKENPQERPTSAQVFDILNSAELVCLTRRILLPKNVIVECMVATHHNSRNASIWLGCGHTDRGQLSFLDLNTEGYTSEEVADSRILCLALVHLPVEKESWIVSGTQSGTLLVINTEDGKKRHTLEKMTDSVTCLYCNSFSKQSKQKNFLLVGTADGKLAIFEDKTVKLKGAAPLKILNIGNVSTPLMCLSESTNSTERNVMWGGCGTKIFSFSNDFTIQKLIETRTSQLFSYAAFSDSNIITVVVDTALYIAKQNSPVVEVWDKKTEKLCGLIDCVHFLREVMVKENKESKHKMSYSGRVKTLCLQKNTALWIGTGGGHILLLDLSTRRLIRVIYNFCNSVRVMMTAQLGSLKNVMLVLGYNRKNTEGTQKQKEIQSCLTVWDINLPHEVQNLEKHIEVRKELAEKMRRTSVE
Method: For VHL and LRRK2 target engagement experiments in live and permeabilized cells, the HEK293 cells were transfected with VHL-NanoLuc fusion vector (Promega, N275A) or LRRK2-NanoLuc fusion vector (Promega, NV3401) following Promega's protocol and seeded into white 384-well plate (Corning3570) at a density of 6000 cells/well. To measure NanoBRET in permeabilized cells, the cells were treated with 50 μg/mL digitonin (Sigma, D141), 125 nM VHL tracer/125 nM LRRK2 tracer, testing compounds at decreasing concentrations (12 concentrations with 2-fold serial dilution starting from 33 μM), and NanoBRET NanoGlo Substrate (Promega) at concentration recommended by the manufacturer's protocol. In the maximum signal control samples (DMSO control), DMSO was added instead of testing compounds. In the minimum signal control samples (no tracer control), DMSO and tracer dilution buffer were used to replace testing compounds and tracer separately. The filtered luminescence was measured within 10 min following addition of the substrate on a GloMax Discover microplate reader (Promega) or a PHERAstar (BMG LABTECH) plate reader equipped with a 450-nm bandpass filter (donor) and a 600-nm long pass filter (acceptor). To measure NanoBRET in live cells, the cells were treated with 250 nM VHL tracer/500 nM LRRK2 tracer, testing compounds at testing compounds at decreasing concentrations (12 concentrations with 2-fold serial dilution starting from 33 μM) and incubated at 37° C. in an incubator for 2 h. The plates were then cooled down and added with NanoBRET NanoGlo Substrate and Extracellular NanoLuc Inhibitor (Promega, N2160) before performing the same NanoBRET reading as the permeabilized mode on plate readers. NanoBRET ratio of each well was expressed in milliBRET according to the equation: mBRET=[(signal at […]/signal at 450 nM)−(signal at 610 nMno tracer control/signal at 450 nMno tracer control)]×1000. The fractional occupancy was calculated according to the equation: fractional occupancy=(mBRETtesting compound−mBRETno tracer control)/(mBRETDMSO control−mBRETno tracer control).

| SMILES | Selectivity Index (pSer935-LRRK2 dephosphorylation, WT vs G2019S MEFs) (LRRK2 pSer935; 24 h) | EC50 (LRRK2 pSer935; 24 h treatment) | T1/2 WT-pSer935-LRRK2 (LRRK2 pSer935; time course at 1000 nM) | IC50 (LRRK2; live HEK293 cells) | IC50 (LRRK2; permeabilized HEK293 cells) | IC50 ratio IC50, per/IC50, live (LRRK2 engagement) (LRRK2; permeabilized vs live mode) | EC50 (LRRK2 pSer935; 4 h treatment) | T1/2 WT-pSer935-LRRK2 (LRRK2 pSer935; time course at 300 nM) | LRRK2 tracer displacement (in words) (LRRK2; permeabilized HEK293 cells) |
| --- | --- | --- | --- | --- | --- | --- | --- | --- | --- |
| CNc1nc(Nc2ccc(C(=O)N3CCN(CCOCCOCCSC(C)(C)[C@H](NC(=O)C4(F)CC4)C(=O)N4C[C@H](O)C[C@H]4C(=O)NCc4ccc(-c5scnc5C)cc4)CC3)cc2OC)ncc1Cl [SD75, (2S,4R)-1-((R)-3-((2-(2-(2-(4-(4-((5-chloro-4-(methylamino)pyrimidin-2-yl)amino)-3-methoxybenzoyl)piperazin-1-yl)ethoxy)ethoxy)ethyl)thio)-2-(1-fluorocyclopropane-1-carboxamido)-3-methylbutanoyl)-4-hydroxy-N-(4-(4-methylthiazol-5-yl)benzyl)pyrrolidine-2-carboxamide] | 2.7 | 745 nM | 3.6 h | 1800 nM | 780 nM | 0.43 | – | – | – |
| CNc1nc(Nc2ccc(C(=O)N3CCN(C[C@H]4CC[C@H](CSC(C)(C)[C@H](NC(=O)C5(F)CC5)C(=O)N5C[C@H](O)CC5C(=O)NCc5ccc(-c6scnc6C)cc5)CC4)CC3)cc2OC)ncc1Cl (stereo partly drawn) [XL01126, (2S,4R)-1-((R)-3-((((1R,4R)-4-((4-(4-((5-chloro-4-(methylamino)pyrimidin-2-yl)amino)-3-methoxybenzoyl)piperazin-1-yl)methyl)cyclohexyl)methyl)thio)-2-(1-fluorocyclopropane-1-carboxamido)-3-methylbutanoyl)-4-hydroxy-N-(4-(4-methylthiazol-5-yl)benzyl)pyrrolidine-2-carboxamide] | – | – | – | 1400 nM | – | – | 18 nM | 0.6 h | poor displacement |
| CNc1nc(Nc2ccc(C(=O)N3CCN(C[C@H]4CC[C@@H](CSC(C)(C)[C@H](NC(=O)C5(F)CC5)C(=O)N5C[C@H](O)CC5C(=O)NCc5ccc(-c6scnc6C)cc5)CC4)CC3)cc2OC)ncc1Cl (some centres unmarked) [XL01134] | – | – | – | 2200 nM | 2000 nM | – | 35 nM | 0.7 h | – |
